Results: paper PMC8801796 (Reproductive Toxicology (Elmsford, N.y.), 2022)

Tests used:
[1] = cited from earlier work
[2] = Maternal toxicokinetics, rabbit EFD study; assay type: in vivo; conditions: for Cmax: female, New Zealand White, in vivo, po; for Cmax / Exposure Margin AUC24 / Exposure Margin Cmax: rabbit; for Mean Systemic Exposure AUC24: maternal rabbit; for Exposure Margin AUC24: relative to predicted human AUC24 68.6 μg h/mL; for Exposure Margin Cmax: relative to predicted human Cmax 4.14 μg/mL
[3] = Maternal toxicokinetics, rat EFD study; assay type: in vivo; conditions: for Cmax: female, Wistar Han, in vivo, po; for Cmax / Exposure Margin AUC24 / Exposure Margin Cmax: rat; for Mean Systemic Exposure AUC24: maternal rat; for Exposure Margin AUC24: relative to predicted human AUC24 68.6 μg h/mL; for Exposure Margin Cmax: relative to predicted human Cmax 4.14 μg/mL
[4] = test system: Wistar Han (Crl:WI[Han]) rats; assay: Fertility and early embryonic development study in rats; assay type: in vivo, rat; conditions: for Corpora lutea / Implantation sites / Live embryos / Resorptions: GD 14 uterine examination; for Number of pregnant females: of 20

**Q.** Which results are given for `CC(C)(C)[C@H](NC(=O)C(F)(F)F)C(=O)N1C[C@H]2[C@@H]([C@H]1C(=O)N[C@H](C#N)C[C@@H]1CCNC1=O)C2(C)C` [NMV, nirmatrelvir]?
**A.** Genetic toxicity [1]: lack of genetic toxicity; Cmax ([2]; 100 mg/kg/day): 17000 ± 6100 ng/mL; Cmax ([2]; 300 mg/kg/day): 42900 ± 11100 ng/mL; Cmax ([2]; 1000 mg/kg/day): 99600 ± 46500 ng/mL; Mean Systemic Exposure AUC24 ([2]; GD 19, 100 mg/kg/day): 98.7 ± 27.4 μgh^•/mL; Mean Systemic Exposure AUC24 ([2]; GD 19, 300 mg/kg/day): 195 ± 56.8 μgh^•/mL; Mean Systemic Exposure AUC24 ([2]; GD 19, 1000 mg/kg/day): 689 ± 206 μgh^•/mL; Exposure Margin AUC24 ([2]; GD 19, 100 mg/kg/day): 1.4x; Exposure Margin Cmax ([2]; GD 19, 100 mg/kg/day): 4.1x; Exposure Margin AUC24 ([2]; GD 19, 300 mg/kg/day): 2.8x; Exposure Margin Cmax ([2]; GD 19, 300 mg/kg/day): 10x; Exposure Margin AUC24 ([2]; GD 19, 1000 mg/kg/day): 10x; Exposure Margin Cmax ([2]; GD 19, 1000 mg/kg/day): 24x; Cmax ([3]; 100 mg/kg/day): 29000 ± 11000 ng/mL; Cmax ([3]; 300 mg/kg/day): 43200 ± 14400 ng/mL; Cmax ([3]; 1000 mg/kg/day): 65400 ± 18700 ng/mL; Mean Systemic Exposure AUC24 ([3]; GD 17, 100 mg/kg/day): 75.5 ± 12.4 μgh^•/mL; Mean Systemic Exposure AUC24 ([3]; GD 17, 300 mg/kg/day): 346 ± 92.0 μgh^•/mL; Mean Systemic Exposure AUC24 ([3]; GD 17, 1000 mg/kg/day): 535 ± 330 μgh^•/mL; Exposure Margin AUC24 ([3]; GD 17, 100 mg/kg/day): 1.1x; Exposure Margin Cmax ([3]; GD 17, 100 mg/kg/day): 7.0x; Exposure Margin AUC24 ([3]; GD 17, 300 mg/kg/day): 5.0x; Exposure Margin Cmax ([3]; GD 17, 300 mg/kg/day): 10x; Exposure Margin AUC24 ([3]; GD 17, 1000 mg/kg/day): 7.8x; Exposure Margin Cmax ([3]; GD 17, 1000 mg/kg/day): 16x; Female Food Consumption, Gestation Day 0−14 ([4]; 60 mg/kg/day): 19.2 ± 2.1 g/day; Female Food Consumption, Premating Day 1−14 ([4]; 60 mg/kg/day): 15.3 ± 1.2 g/day; Female Terminal Body Weight ([4]; 60 mg/kg/day): 277.0 ± 24.1 g; Male Food Consumption, Mating Day 15−19 ([4]; 60 mg/kg/day): 19.3 ± 2.8 g/day; Male Food Consumption, Premating Day 1−14 ([4]; 60 mg/kg/day): 22.0 ± 1.1 g/day; Male Terminal Body Weight ([4]; 60 mg/kg/day): 409.9 ± 22.7 g; Mean no. of estrous cycles ([4]; 60 mg/kg/day): 2.7 ± 0.5; Postimplantation loss ([4]; 60 mg/kg/day): 5.3 ± 5.7%; Precoital interval ([4]; 60 mg/kg/day): 3.6 ± 3.5 days; Preimplantation loss ([4]; 60 mg/kg/day): 9.7 ± 8.1%; Corpora lutea ([4]; 60 mg/kg/day): 13.8 ± 1.3; Implantation sites ([4]; 60 mg/kg/day): 12.5 ± 1.4; Live embryos ([4]; 60 mg/kg/day): 11.8 ± 1.4; Resorptions ([4]; 60 mg/kg/day): 0.7 ± 0.7; Number of pregnant females ([4]; 60 mg/kg/day): 19; Female Food Consumption, Gestation Day 0−14 ([4]; 200 mg/kg/day): 19.0 ± 2.2 g/day; Female Food Consumption, Premating Day 1−14 ([4]; 200 mg/kg/day): 14.8 ± 0.8 g/day; Female Terminal Body Weight ([4]; 200 mg/kg/day): 272.0 ± 13.3 g; Male Food Consumption, Mating Day 15−19 ([4]; 200 mg/kg/day): 18.0 ± 3.1 g/day; Male Food Consumption, Premating Day 1−14 ([4]; 200 mg/kg/day): 23.0 ± 1.2 g/day; Male Terminal Body Weight ([4]; 200 mg/kg/day): 411.6 ± 22.2 g; Mean no. of estrous cycles ([4]; 200 mg/kg/day): 2.7 ± 0.5; Postimplantation loss ([4]; 200 mg/kg/day): 9.5 ± 12.8%; Precoital interval ([4]; 200 mg/kg/day): 3.0 ± 2.2 days; Preimplantation loss ([4]; 200 mg/kg/day): 11.0 ± 18.4%; Corpora lutea ([4]; 200 mg/kg/day): 14.1 ± 1.7; Implantation sites ([4]; 200 mg/kg/day): 12.6 ± 3.0; Live embryos ([4]; 200 mg/kg/day): 11.5 ± 3.2; Resorptions ([4]; 200 mg/kg/day): 1.1 ± 1.6; Number of pregnant females ([4]; 200 mg/kg/day): 18; Female Food Consumption, Gestation Day 0−14 ([4]; 1000 mg/kg/day): 19.0 ± 1.6 g/day; Female Food Consumption, Premating Day 1−14 ([4]; 1000 mg/kg/day): 14.7 ± 1.0 g/day; Female Terminal Body Weight ([4]; 1000 mg/kg/day): 277.8 ± 14.1 g; Male Food Consumption, Mating Day 15−19 ([4]; 1000 mg/kg/day): 18.3 ± 3.2 g/day; Male Terminal Body Weight ([4]; 1000 mg/kg/day): 408.9 ± 19.7 g; Mean no. of estrous cycles ([4]; 1000 mg/kg/day): 2.6 ± 0.5; Postimplantation loss ([4]; 1000 mg/kg/day): 10.6 ± 11.9%
